Measured values reported in US6737383B1, “Herbicidal oxadiazolidines” (priority 1999, dated 2004).

How the values were obtained:
bedstraw = assay: Test B pre/postemergence bedstraw; type: in vivo, Galium aparine
Summary of the method: (§1)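 Herbicidal effect was estimated by eye on a ten-point control scale after plants spent twelve to sixteen days in a greenhouse following soil or foliar treatment. Foliar sprays targeted plants at one to four leaves; all doses were formulated in a non-phytotoxic solvent with surfactant.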

blackgrass = assay: Test B pre/postemergence blackgrass; type: in vivo, Alopecurus myosuroides
Summary of the method: as §1

surinam grass = assay: Test B pre/postemergence surinam grass; type: in vivo, Brachiaria decumbens
Summary of the method: as §1

cocklebur = assay: Test B pre/postemergence cocklebur; type: in vivo, Xanthium strumarium; conditions: for Cocklebur plant response rating: scale of 0 to 10 where 0 is no effect and 10 is complete control
Summary of the method: as §1

corn = assay: Test B pre/postemergence corn; type: in vivo, Zea mays; conditions: for Corn plant response rating: scale of 0 to 10 where 0 is no effect and 10 is complete control
Summary of the method: as §1

crabgrass = assay: Test B pre/postemergence crabgrass; type: in vivo, Digitaria sanguinalis; conditions: for Crabgrass plant response rating: scale of 0 to 10 where 0 is no effect and 10 is complete control
Summary of the method: as §1

giant foxtail = assay: Test B pre/postemergence giant foxtail; type: in vivo, Setaria faberii; conditions: for Giant foxtail plant response rating: scale of 0 to 10 where 0 is no effect and 10 is complete control
Summary of the method: as §1

morningglory = assay: Test B pre/postemergence morningglory; type: in vivo, Ipomoea hederacea; conditions: for Morningglory plant response rating: scale of 0 to 10 where 0 is no effect and 10 is complete control
Summary of the method: as §1

pigweed = assay: Test B pre/postemergence pigweed; type: in vivo, Amaranthus retroflexus; conditions: for Redroot pigweed plant response rating: scale of 0 to 10 where 0 is no effect and 10 is complete control
Summary of the method: as §1

rape = assay: Test B pre/postemergence rape; type: in vivo, Brassica napus; conditions: for Rape plant response rating: scale of 0 to 10 where 0 is no effect and 10 is complete control
Summary of the method: as §1

soybean = assay: Test B pre/postemergence soybean; type: in vivo, Glycine max; conditions: for Soybean plant response rating: scale of 0 to 10 where 0 is no effect and 10 is complete control
Summary of the method: as §1

sugar beet = assay: Test B pre/postemergence sugar beet; type: in vivo, Beta vulgaris; conditions: for Sugarbeets plant response rating: scale of 0 to 10 where 0 is no effect and 10 is complete control
Summary of the method: as §1

velvetleaf = assay: Test B pre/postemergence velvetleaf; type: in vivo, Abutilon theophrasti; conditions: for Velvetleaf plant response rating: scale of 0 to 10 where 0 is no effect and 10 is complete control
Summary of the method: as §1

wheat = assay: Test B pre/postemergence wheat; type: in vivo, Triticum aestivum; conditions: for Wheat plant response rating: scale of 0 to 10 where 0 is no effect and 10 is complete control
Summary of the method: as §1

wild oat = assay: Test B pre/postemergence wild oat; type: in vivo, Avena fatua; conditions: for Wild oats plant response rating: scale of 0 to 10 where 0 is no effect and 10 is complete control
Summary of the method: as §1

purple nutsedge = assay: Test B pre/postemergence purple nutsedge; type: in vivo, Cyperus rotundus; conditions: for Nutsedge plant response rating: scale of 0 to 10 where 0 is no effect and 10 is complete control
Summary of the method: as §1

rice = assay: Test B flood test rice; type: in vivo, Oryza sativa
Summary of the method: (§2)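 Flood test on plants grown to the 2-leaf stage; treated plants kept in greenhouse twelve to sixteen days, then visually rated against controls on a 0 (no effect) to 10 (complete control) scale.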

smallflower flatsedge = assay: Test B flood test smallflower flatsedge; type: in vivo, Cyperus difformis
Summary of the method: as §2

duck salad = assay: Test B flood test duck salad; type: in vivo, Heteranthera limosa
Summary of the method: as §2

bamyardgrass = assay: Test B flood test barnyardgrass; type: in vivo, Echinochloa crus-galli
Summary of the method: as §2

[1] = Postemergence, Rate 125 g/ha, scale 0 to 10, 0 is no effect, 10 is complete control
[2] = Preemergence, Rate 62 g/ha, scale 0 to 10 (0 no effect, 10 complete control)
[3] = Preemergence, Rate 500 g/ha, scale of 0 to 10 where 0 is no effect and 10 is complete control
[4] = Rate 62 g/ha, Postemergence, scale of 0 to 10 where 0 is no effect and 10 is complete control
[5] = Rate 250 g/ha, Postemergence, scale of 0 to 10 where 0 is no effect and 10 is complete control
[6] = Rate 500 g/ha, Postemergence, scale 0 to 10, 0 no effect, 10 complete control
[7] = Preemergence, Rate 250 g/ha, scale of 0 to 10 where 0 is no effect and 10 is complete control
[8] = Postemergence (flood test), Rate 125 g/ha, scale 0 to 10, 0 is no effect, 10 is complete control
[9] = Rate 500 g/ha, listed under Postemergence (flood test species), scale 0 to 10, 0 no effect, 10 complete control

CC(C)C(C)n1c(=O)on(C(=O)N(c2ccc(F)cc2F)C(C)C)c1=O (centres unmarked) [Compound 356]
Plant response rating, Bedstraw (bedstraw; [1]): 0
Plant response rating, Bedstraw (bedstraw; [2]): 0
Bedstraw plant response rating (0 to 10 scale) (bedstraw; Preemergence, Rate 125 g/ha): 0
Bedstraw plant response rating (bedstraw; [3]): 9
Bedstraw plant response rating (bedstraw; [4]): 0
Plant response rating, Bedstraw (bedstraw; [5]): 3
Plant response rating, Bedstraw (bedstraw; [6]): 3
Plant response rating, Blackgrass (blackgrass; [1]): 6
Plant response rating, Blackgrass (blackgrass; [2]): 5
Blackgrass plant response rating (0 to 10 scale) (blackgrass; Preemergence, Rate 125 g/ha): 6
Blackgrass plant response rating (blackgrass; [7]): 9
Blackgrass plant response rating (blackgrass; [3]): 9
Blackgrass plant response rating (blackgrass; [4]): 3
Plant response rating, Blackgrass (blackgrass; [5]): 6
Plant response rating, Blackgrass (blackgrass; [6]): 7
Plant response rating, B. signalgrass (surinam grass; [1]): 0
Plant response rating, B. signalgrass (surinam grass; [2]): 0
B. signalgrass plant response rating (0 to 10 scale, 0 is no effect, 10 is complete control) (surinam grass; Preemergence, Rate 125 g/ha): 3
B. signalgrass plant response rating (surinam grass; [7]): 5
B. signalgrass plant response rating (surinam grass; [3]): 5
B. signalgrass plant response rating (surinam grass; [4]): 0
Plant response rating, B. signalgrass (surinam grass; [5]): 1
Plant response rating, B. signalgrass (surinam grass; [6]): 1
Plant response rating, Cocklebur (cocklebur; [1]): 0
Cocklebur plant response rating (0 to 10 scale) (cocklebur; Preemergence, Rate 125 g/ha): 0
Cocklebur plant response rating (cocklebur; Preemergence, Rate 250 g/ha): 0
Cocklebur plant response rating (cocklebur; Preemergence, Rate 500 g/ha): 0
Cocklebur plant response rating (cocklebur; Rate 62 g/ha, Postemergence): 0
Plant response rating, Cocklebur (cocklebur; [6]): 0
Plant response rating, Corn (corn; [1]): 0
Plant response rating, Corn (corn; [2]): 0
Corn plant response rating (0 to 10 scale) (corn; Preemergence, Rate 125 g/ha): 0
Corn plant response rating (corn; Preemergence, Rate 250 g/ha): 2
Corn plant response rating (corn; Preemergence, Rate 500 g/ha): 6
Corn plant response rating (corn; Rate 62 g/ha, Postemergence): 0
Plant response rating, Corn (corn; [6]): 3
Plant response rating, Crabgrass (crabgrass; [1]): 0
Plant response rating, Crabgrass (crabgrass; [2]): 7
Crabgrass plant response rating (0 to 10 scale) (crabgrass; Preemergence, Rate 125 g/ha): 8
Crabgrass plant response rating (crabgrass; Preemergence, Rate 250 g/ha): 9
Crabgrass plant response rating (crabgrass; Preemergence, Rate 500 g/ha): 10
Crabgrass plant response rating (crabgrass; Rate 62 g/ha, Postemergence): 0
Plant response rating, Crabgrass (crabgrass; [6]): 3
Plant response rating, Giant foxtail (giant foxtail; [1]): 4
Plant response rating, Giant foxtail (giant foxtail; [2]): 10
Giant foxtail plant response rating (0 to 10 scale) (giant foxtail; Preemergence, Rate 125 g/ha): 10
Giant foxtail plant response rating (giant foxtail; Preemergence, Rate 250 g/ha): 10
Giant foxtail plant response rating (giant foxtail; Preemergence, Rate 500 g/ha): 10
Giant foxtail plant response rating (giant foxtail; Rate 62 g/ha, Postemergence): 2
Plant response rating, Giant foxtail (giant foxtail; [6]): 8
Plant response rating, Morningglory (morningglory; [1]): 6
Plant response rating, Morningglory (morningglory; [2]): 0
Morningglory plant response rating (0 to 10 scale) (morningglory; Preemergence, Rate 125 g/ha): 0
Morningglory plant response rating (morningglory; Preemergence, Rate 250 g/ha): 0
Morningglory plant response rating (morningglory; Preemergence, Rate 500 g/ha): 0
Morningglory plant response rating (morningglory; Rate 62 g/ha, Postemergence): 4
Plant response rating, Morningglory (morningglory; [6]): 10
Plant response rating, Redroot pigweed (pigweed; [1]): 0
Plant response rating, Redroot pigweed (pigweed; [2]): 0
Redroot pigweed plant response rating (0 to 10 scale) (pigweed; Preemergence, Rate 125 g/ha): 4
Redroot pigweed plant response rating (pigweed; Preemergence, Rate 250 g/ha): 8
Redroot pigweed plant response rating (pigweed; Preemergence, Rate 500 g/ha): 10
Redroot pigweed plant response rating (pigweed; Rate 62 g/ha, Postemergence): 0
Plant response rating, Redroot pigweed (pigweed; [6]): 0
Plant response rating, Rape (rape; [1]): 0
Plant response rating, Rape (rape; [2]): 0
Rape plant response rating (0 to 10 scale) (rape; Preemergence, Rate 125 g/ha): 2
Rape plant response rating (rape; Preemergence, Rate 250 g/ha): 4
Rape plant response rating (rape; Preemergence, Rate 500 g/ha): 5
Rape plant response rating (rape; Rate 62 g/ha, Postemergence): 0
Plant response rating, Rape (rape; [6]): 0
Plant response rating, Soybean (soybean; [1]): 3
Plant response rating, Soybean (soybean; [2]): 0
Soybean plant response rating (0 to 10 scale) (soybean; Preemergence, Rate 125 g/ha): 0
Soybean plant response rating (soybean; Preemergence, Rate 250 g/ha): 0
Soybean plant response rating (soybean; Preemergence, Rate 500 g/ha): 0
Soybean plant response rating (soybean; Rate 62 g/ha, Postemergence): 2
Plant response rating, Soybean (soybean; [6]): 5
Plant response rating, Sugarbeets (sugar beet; [1]): 0
Plant response rating, Sugarbeets (sugar beet; [2]): 0
Sugarbeets plant response rating (0 to 10 scale) (sugar beet; Preemergence, Rate 125 g/ha): 0
Sugarbeets plant response rating (sugar beet; Preemergence, Rate 250 g/ha): 2
Sugarbeets plant response rating (sugar beet; Preemergence, Rate 500 g/ha): 5
Sugarbeets plant response rating (sugar beet; Rate 62 g/ha, Postemergence): 0
Plant response rating, Sugarbeets (sugar beet; [6]): 0
Plant response rating, Velvetleaf (velvetleaf; [1]): 0
Plant response rating, Velvetleaf (velvetleaf; [2]): 1
Velvetleaf plant response rating (0 to 10 scale) (velvetleaf; Preemergence, Rate 125 g/ha): 2
Velvetleaf plant response rating (velvetleaf; Preemergence, Rate 250 g/ha): 3
Velvetleaf plant response rating (velvetleaf; Preemergence, Rate 500 g/ha): 5
Velvetleaf plant response rating (velvetleaf; Rate 62 g/ha, Postemergence): 0
Plant response rating, Velvetleaf (velvetleaf; [6]): 0
Plant response rating, Wheat (wheat; [1]): 3
Plant response rating, Wheat (wheat; [2]): 0
Wheat plant response rating (0 to 10 scale) (wheat; Preemergence, Rate 125 g/ha): 0
Wheat plant response rating (wheat; Preemergence, Rate 250 g/ha): 0
Wheat plant response rating (wheat; Preemergence, Rate 500 g/ha): 6
Wheat plant response rating (wheat; Rate 62 g/ha, Postemergence): 2
Plant response rating, Wheat (wheat; [6]): 4
Plant response rating, Wild oats (wild oat; [1]): 3
Plant response rating, Wild oats (wild oat; [2]): 5
Wild oats plant response rating (0 to 10 scale) (wild oat; Preemergence, Rate 125 g/ha): 7
Wild oats plant response rating (wild oat; Preemergence, Rate 250 g/ha): 10
Wild oats plant response rating (wild oat; Rate 62 g/ha, Postemergence): 2
Plant response rating, Wild oats (wild oat; [6]): 3
Plant response rating, Nutsedge (purple nutsedge; [1]): 0
Plant response rating, Nutsedge (purple nutsedge; [2]): 0
Nutsedge plant response rating (0 to 10 scale) (purple nutsedge; Preemergence, Rate 125 g/ha): 0
Nutsedge plant response rating (purple nutsedge; Preemergence, Rate 250 g/ha): 0
Nutsedge plant response rating (purple nutsedge; Preemergence, Rate 500 g/ha): 0
Nutsedge plant response rating (purple nutsedge; Rate 62 g/ha, Postemergence): 0
Plant response rating, Nutsedge (purple nutsedge; [6]): 0
Plant response rating, Rice (rice; [8]): 0
Rice plant response rating (rice; Rate 62 g/ha, Postemergence (flood test species), scale of 0 to 10 where 0 is no effect and 10 is complete control): 0
Plant response rating, Rice (rice; [9]): 0
Plant response rating, S. Flatsedge (smallflower flatsedge; [8]): 4
Plant response rating, S. Flatsedge (smallflower flatsedge; [9]): 7
Plant response rating, Ducksalad (duck salad; [8]): 0
Plant response rating, Ducksalad (duck salad; [9]): 2
Plant response rating, Barnyardgrass (bamyardgrass; [8]): 0
Plant response rating, Barnyardgrass (bamyardgrass; Rate 250 g/ha, Postemergence (flood test species), scale of 0 to 10 where 0 is no effect and 10 is complete control): 7
Plant response rating, Barnyardgrass (bamyardgrass; [9]): 7
